Tests used:
[1] = tested on: patients after bariatric surgery with post-prandial hypoglycaemia; test: Liquid mixed-meal test after single dose: plasma glucose and glucose-requiring hypoglycaemic events; assay type: in vivo, human; details: for number of events (hypoglycemia requiring glucose rescue), estimate vs placebo: FIG. 5b, generalized linear additive mixed effect model; for glucose, estimate vs placebo: FIG. 5c, linear mixed effect model; for severity of hypoglycemic events / events requiring rescue glucose administration: pre-treatment vs placebo (7 of 12 patients on placebo), p=0.037; for glucose-requiring hypoglycaemic events (%): single dose before mixed meal, placebo 61.5%
Description: This study is a placebo controlled, double-blind, randomized, cross-over proof-of-concept study. The study consists of a screening visit and three study dates that need to have a minimum interval between the dates of four days and maximum of two weeks. Ideally, all three study dates are performed within 14 days allowing the usage of one single flash glucose monitoring system sensor (Freestyle Libre®, Abbott) for the entire period. The screening visit is about 90 min. Each study day lasts 6.5 hours and consists of the same schedule. If the subject agrees to use a glucose flash monitoring system, the sensor is installed the afternoon before study day 1 and the subject is instructed in the use of the system.
(§1) The 12 subjects were randomly assigned into six groups consisting of two subjects receiving study medication in a double-blind, crossed-over manner as outlined in FIG. 2. Patients need to be sober at least eight hours before ingestion of mixed-meal. To ensure that fasting period is not too long, patients receive a small late evening meal consisting of 4 DarVida Natural Crackers as well as 3 Sinergy® drops (see Appendix for specific contents) or are alternatively pleased to have their dinner at around 10 pm. Treatment consists of a single subcutaneous injection of 100 mg Anakinra (Kineret®) or matched placebo three hours before ingestion of the mixed-meal and of a single oral tablet of 10 mg of empagliflozin (Jardiance®) or matched placebo two hours before mixed-meal at each study day. Patients were randomised to receive in different sequences either (1) anakinra and an oral placebo to empagliflozin, (2) empagliflozin and a subcutaneous placebo (0.67 ml 0.9% saline) to anakinra or (3) double placebo. Participants, investigators and study nurses were blinded to the study drug.
Between the study drug application questionnaires concerning dumping symptoms were answered. Regular measurement of vital parameters, blood samples and hypoglycaemia assessments were performed as outlined in FIG. 1. After ingestion of the liquid mixed-meal subjects had to rest in supine position (at least 45°). One subject was not able to ingest the full specified liquid mixed meal (carbohydrate load of 40 g instead of 60 g) on the first study day and thereafter received the same portion of liquid mixed meal on subsequent study days.
In case of symptomatic hypoglycaemia before the prespecified next laboratory control immediate glucose measurements with Freestyle Libre® and POCT respectively were performed and in case of hypoglycemic values (<3.0 mmol/l) laboratory samples were drawn and glucose (10 g) was given intravenously. Samples were named according to the exact timepoint and the following pre-specified samples were taken according to the study schedule. If patients were not symptomatic glucose (10 g) was given intravenously only in case of POCT glucose values below 2.5 mmol/l.
Blood glucose measurements regularly took place and an inserted catheter in case of hypoglycaemia was adjusted at the beginning of each study date. In case of a symptomatic decrease of blood glucose levels in symptomatic patients below 2.5 mmol/l, counter-regulatory actions (e.g. 100 ml of 10% glucose) were initiated after taking the blood sample panel.
The primary outcome in this study is the change of post-prandial hypoglycaemia after treatment with empagliflozin (Jardiance®) or anakinra (Kineret®) compared to placebo. This was assessed by blood glucose measurements (capillary POCT measurements and plasma glucose) as well as clinical scoring systems (Edinburgh Hypoglycaemia Scale (Deary et al. Diabetologia 1993; 36(8): 771-7), Mixed-Meal-Test (Wiesli et al. Eur J Endocrinol 2005; 152(4): 605-10.) Stanford sleepiness scale).
At each study day the same schedule took place. […]

[2] = tested on: patients after bariatric surgery with post-prandial hypoglycaemia; test: Mixed-meal test: insulin, c-peptide, GLP-1, glucagon, insulin secretion and sensitivity indices; assay type: in vivo, human; details: for insulin AUC, estimate vs placebo: FIG. 5e; for insulin AUC, estimate vs placebo / c-peptide, estimate vs placebo / insulin, estimate vs placebo / insulin secretion index, effect estimate vs placebo: linear mixed effect model; for c-peptide, estimate vs placebo: FIG. 5f; for c-peptide, estimate vs placebo / insulin, estimate vs placebo: log-transformed outcome; for insulin, estimate vs placebo: FIG. 5d; for insulin secretion index, effect estimate vs placebo: placebo average 108.0 pmol/mmol; for Whole body insulin sensitivity index / Insulin secretion index: median, n=12; for Whole body insulin sensitivity index: placebo 38.0, single dose before mixed meal; for Insulin secretion index: placebo 104.6, single 10 mg empagliflozin oral 2 h or 100 mg anakinra s.c. 3 h before mixed meal; for insulin secretion / insulin release and c-peptide secretion over time: vs placebo
Source text: as §1
The secondary objectives are to evaluate whether treatment of empagliflozin (Jardiance®) or anakinra (Kineret®) have effects on the following aspects: • level of insulin secretion and sensitivity • levels of GLP-1, glucagon and C-peptide • levels of IL-6; IL-1Ra, CRP • scores in Edinburgh Hypoglycaemia Scale (clinical score for assessment of hypoglycemia), Stanford Sleepiness Scale (clinical score of assessment of sleepiness) as well as Sigstad Score (clinical score for early and late dumping symptoms) • Length of time and amount of glucose needed for restoring normoglycemia.
Insulin secretion was measured using standard insulin ELISA.
Statistical analysis for this proof-of-concept translational clinical trial was done on a per-protocol basis. Sample size was based on practical considerations due to the lack of pre-existing data for this intervention. All analyses are to be considered exploratory. Analysis of continuous dependent outcome variables (e.g. glucose, insulin, c-peptide, GLP-1, glucagon, insulin secretion index and sensitivity, IL-1p, IL-6, IL-8, TNFα), was done using linear mixed effect models fit by maximum likelihood. Analysis of the binary dependent outcome variables occurrence of severe hypoglycemia requiring glucose rescue and occurrence of composite score ≥6 on the Edinburgh Hypoglycemia Scale was done using a generalized linear additive mixed effect model fit by maximum likelihood (Laplace approximation). Models were fit including fixed effects for categorical variables such as gender, the occurrence of hypoglycemia, treatment and in case of values measured in cell culture supernatants, activation status (non-stimulated, LPS-simulated), as well as the continuous variables time and BMI as indicated. A random-effect for patient was equally included (random by-subject intercepts, fixed slopes). Models were computed using the R “Ime4” and “gamm4” packages. • Individual models were visually assessed for the presence of heteroscedasticity, collinearity and normality of residuals. […] For visual representation, log-transformed outcome values were back-transformed to their initial values.
Treatment effects are presented in Table 6 as mean effect size estimates with 95% CIs, test-statistics and multiple comparison adjusted p-values (=FDR values). • Missing values for insulin (n=1), GLP-1 (n=4) and glucagon (n=5) were assumed to be missing at random and imputed using multiple imputation with the R-package “mice”. Inferential statistical analyses were done using R version 3.5.2. Descriptive statistics were done with GraphPad Prism8 version 8.0.1(145). […]

Compound	glycaemia 30 minutes after ingestion of the mixed meal ([1]; 30 min, 10 mg empagliflozin, the other value is placebo) [mmol/L]	glycaemia 60 minutes after ingestion of the mixed meal ([1]; 60 min, 10 mg empagliflozin, the other value is placebo) [mmol/L]	glycaemia 90 minutes after ingestion of the mixed meal ([1]; 90 min, 10 mg empagliflozin, the other value is placebo)	number of events (hypoglycemia requiring glucose rescue), estimate vs placebo [1]	glucose, estimate vs placebo [1]	severity of hypoglycemic events / events requiring rescue glucose administration [1]	glucose-requiring hypoglycaemic events (%) [1] [%]	peak postprandial glucose levels ([1]; vs placebo)	insulin AUC, estimate vs placebo [2]	c-peptide, estimate vs placebo [2]	insulin, estimate vs placebo [2]	insulin secretion index, effect estimate vs placebo [2] [pmol/mmol]	Whole body insulin sensitivity index [2]	Insulin secretion index [2]	insulin secretion / insulin release and c-peptide secretion over time [2]	changes of the glucose curve within the first 90 minutes ([1]; vs placebo)
OC[C@H]1O[C@@H](c2ccc(Cl)c(Cc3ccc(O[C@H]4CCOC4)cc3)c2)[C@H](O)[C@@H](O)[C@@H]1O [empagliflozin]	10.1	6.9	3.5	−2.882	−0.472	significantly reduced the severity of hypoglycemic events with only two events requiring rescue glucose administration	16.6	reduced	−19.32	−0.2237	−0.852	−10.8	84.6	99.2	reduced	–
anakinra: CAS NO 143090-92-0; recombinant, non-glycosylated form of the human interleukin-1 receptor antagonist (IL-1 Ra), 153 amino acids	–	–	–	−2.882	0.133	significantly reduced the severity of hypoglycemic events with only two events requiring rescue glucose administration	16.6	–	−13.9	−0.0912	−0.266	−18.5	72.1	91.6	reduced	did not result in significant changes

Reference: US20220088144A1, “SGLT-2 INHIBITORS OR IL-1R ANTAGONISTS FOR REDUCTION OF HYPOGLYCAEMIA AFTER BARIATRIC SURGERY” (UNIVERSITÄTSSPITAL BASEL, priority 2019, published 2022)
